{"source": "patent US8283481B2", "about": "“Inhibitors of a 9-cis epoxycarotenoid dioxygenase” (National Research Council of Canada, priority 2008, dated 2012)", "key": {"AtNCED3": {"test_system": "AtNCED3", "assay": "qRT-PCR transcript level in mannitol stressed plants: AtNCED3", "format": "in vivo, Arabidopsis thaliana", "settings": "10 and 33 μM, mannitol stress", "description": "For each condition to be tested, three hundred wild-type Arabidopsis thaliana Col-0 seeds (LEHLE) were sterilized, vernalized and sewn onto 200 mL of Sunshine Mix #3 (Sun Gro) potting material in an 8×8×4 cm pot. Plants were watered continuously with 25 g/100 mL of 20-20-20 (PlantProdTM) fertilizer and grown at 22° C. with a 16 hour photoperiod for 22 days. Plants were pre-treated with 50 mL/pot of Buffer A (10 mM HEPES pH 6.5) (Sigma)+/-10 or 33 μM test compound for 2 hours. Plants were then soaked with 50 mL/pot of Buffer A containing 0.4 M mannitol (Sigma)+/-10 or 33 μM test compound. Non-treated/non-stressed control plants were simply soaked in Buffer A at the designated time points. Aerial plant tissue was harvested after 6, 12 and 48 hours from the time of initial inhibitor treatment and flash frozen in liquid nitrogen. Half of the tissue samples were lyophilized for metabolite profiling and the other half taken for quantitative reverse-transcription polymerase chain reaction (qRT-PCR) analysis. […] The resulting mRNA was quantified and checked for quality using a Nano-DropTM ND-1000 Spectrophotometer. QuantiTectTM Reverse Transcription Kit (Qiagen) was used to produce cDNA as directed by the manufacturer from 20 ng of starting mRNA. Quantitative PCR was performed on 1 μL of cDNA product using a Bio-Rad iCyclerTM and the QuantiTectTM SYBR Green PCR Kit (Qiagen) coupled with QuantiTectTM Primer Assays (Qiagen) for the gene targets; […]-112304), Rd29B (NM-124609), CYP707A1 (NM-118043), CYP707A3 (NM-123902) and UBQ10 (NM-178968). The pre-validated primer sets are as follows indicated by the GeneGlobe (www1.qiagen.com/GeneGlobe/default.aspx) product name and (catalogue number): At_NCED3-1_SG (QT00769573), At_RD29B-1_SG (QT00840399), At_CYP707A1-1_SG (QT00808339), At_CYP707A3-1_SG (QT00739242), At_UBQ10_va.1_SG (QT01123745). Relative changes in transcript level were normalized using UBQ10 and quantified as previously described.^41"}, "recombinant AtNCED3": {"molecular_target": "T1, recombinant AtNCED3 (Arabidopsis thaliana, UniProt Q9LRR7)", "T1 construct": "glutathione-S-transferase (GST) (C); made in house; host or cells: E. coli BL21(DE3), pRL296 vector", "T1 sequence (Q9LRR7 41-599)": "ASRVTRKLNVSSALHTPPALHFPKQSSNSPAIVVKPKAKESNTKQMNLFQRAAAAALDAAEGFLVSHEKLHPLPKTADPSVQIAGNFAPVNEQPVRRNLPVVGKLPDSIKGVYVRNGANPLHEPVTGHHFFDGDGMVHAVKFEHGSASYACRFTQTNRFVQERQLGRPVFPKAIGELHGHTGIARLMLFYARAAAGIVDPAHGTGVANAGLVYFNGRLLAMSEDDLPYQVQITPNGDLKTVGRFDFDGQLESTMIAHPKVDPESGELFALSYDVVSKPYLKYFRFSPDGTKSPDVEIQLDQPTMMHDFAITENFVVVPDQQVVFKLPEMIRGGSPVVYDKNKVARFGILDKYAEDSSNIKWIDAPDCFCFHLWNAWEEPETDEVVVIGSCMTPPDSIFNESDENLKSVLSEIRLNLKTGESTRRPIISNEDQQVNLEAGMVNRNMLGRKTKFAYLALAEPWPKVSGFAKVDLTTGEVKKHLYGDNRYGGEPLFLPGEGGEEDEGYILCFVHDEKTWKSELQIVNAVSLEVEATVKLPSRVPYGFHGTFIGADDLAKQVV", "assay": "Recombinant AtNCED3 in vitro enzyme assay (HPLC, cleavage of 9-cis-neoxanthin)", "format": "biochemical", "settings": "for Ki: Dixon plot, competitive inhibition, 0-250 μM inhibitor, 9-cis-neoxanthin at 50 (55), 30 and 10 μM; for relative inhibition of AtNCED3 activity (in words): in vitro enzyme assay, 1 mM concentration (FIG. 5)", "excerpt": "Fresh spinach was macerated under liquid nitrogen and extracted five times with three volumes of methanol/0.1% KOH. Samples were dried using a roto-evaporator, resuspended in acetone and then chilled on ice for one hour. The solvent was subsequently transferred to a new flask, roto-evaporated and resuspended in acetonitrile/acetone (1:1) mixture. The mixture was applied to a gravity flow column containing C-18 silica gel (Sigma) equilibrated in 65% acetonitrile/35% water (solvent C). The column was washed with 49% acetone (solvent D)/51% solvent A and 20 mL of 55% solvent D/45% solvent A while collecting 5 mL fractions. Fractions containing neoxanthin were pooled, dried, and resuspended in 100 μL of methanol. The pooled mixture was separated using an Agilent 1100 series HPLC and a Supelcosil™ LC-18 (25 cm×10 mm, 5 m) (Supelco) column equilibrated with solvent A. The HPLC method consisted of a linear gradient over 30 minutes from 100% solvent A to 100% solvent D with a flow rate of 4 mL/minute at 22° C. and monitored with a PDA detector at 436 nm. The neoxanthin fractions were collected, dried and resuspended in ethanol. Neoxanthin was quantified by determining its OD439 using a PerkinElmer Lambda 35 UV/VIS Spectrometer and applying its extinction coefficient of 2243 (A^1%1cm).^30\nAtNCED3 was over-expressed using the pRL296 expression vector (a gift from M. Cygler, BRI, Montreal) in E. coli (BL21)DE3 cells as a glutathione-S-transferase fusion protein and affinity purified using glutathione sepharose 4 fast flow resin (GE Healthcare) as described previously.^35 Essentially, cells were grown to an OD600 of 0.45 at 37° C. and 200 rpm shaking. The culture was induced with 1 mM isopropyl-β-d-thiogalactoside for 16 h at 15° C. and 200 rpm shaking. The cells were pelleted and resuspended in 50 mM Tris-HCl (pH 8.0) 1 mM DTT and 0.5% protease inhibitor cocktail set III (CalBiochem). Cells were lysed using a french press at 20,000 psi and affinity purified as per manufacturer's instructions (GE Healthcare). Protein concentration was determined by the method of Bradford.^36\nEnzymatic assays contained 100 mM Bis-Tris (pH 6.7), […], 10 mM ascorbate, 0.05% Triton™ X-100, catalase (1 mg/mL), neoxanthin and inhibitor to a total volume of 5 L of ethanol and 8 g AtNCED3 to a total assay volume of 100 L. Assays were incubated at 22° C. for 20 min. The assays were stopped with the addition of 50 L of 25% Triton™ X-100 and extracted with 150 L of ethyl acetate. All procedures were performed under red-light to minimize photo-induced damage to assay components and products.^6 Fine chemicals and solvents were purchased from Sigma-Aldrich. 75 μL of the assay extract was injected into an Agilent 1100 series HPLC machine equipped with a Supelcosil™ LC-18 (3.3 cm×4.6 mm, 3 m) (Supelco) column pre-equilibrated with 15% acetonitrile (solvent B)/85% water (solvent A). Solvent B increased to 35% over ten minutes, followed by a linear gradient of 65% solvent B to 100% solvent D over 10 minutes. Solvent D was maintained at 100% for 2 minutes and then the column was returned to 15% solvent B for 5 min. The flow rate was maintained at 1.5 mL/min. and monitored with a photodiode array (PDA) detector at 436 and 262 nm.\nEvaluation of recombinant AtNCED3 kinetic parameters for Km was accomplished using Michaelis-Menten equation plotted with EnzFitter™ v2.0.18.0 (Biosoft). The Ki for inhibitors was determined using a Dixon plot and concentration ranges of 250, 200, 150, 100, 50 and 0 μM inhibitor in the presence of either 55, 30 or 10 μM 9-cis-neoxanthin 2.^5"}}}
{"smiles": "CCSCC=C(C)C#CC1(O)C(C)CC(=O)CC1(C)C", "note": "(racemic) [Compound 13, (4S,5R/4R,5S)-(3′Z)-4-(5′-(Ethylthio)-3′-methylpent-3′-en-1′-ynyl)-4-hydroxy-3,3,5-trimethylcyclohexanone]", "values": [{"measurement": "relative expression level of AtNCED3 in mannitol stressed plants (in words)", "setting": "AtNCED3", "result": "decrease the relative expression levels of AtNCED3"}, {"measurement": "inhibition at 1000 µM", "setting": "recombinant AtNCED3; 1 mM compound", "result": 75, "unit": "%"}, {"measurement": "Ki", "setting": "recombinant AtNCED3", "result": 93, "unit": "µM"}]}
{"smiles": "C/C(C#C[C@@]12O[C@]1(C)C[C@@H](O)CC2(C)C)=C/CSc1ccccc1", "note": "[Compound 17, (1R,3S,6R)-(3′Z)-1,5,5-Trimethyl-6-(3′-methyl-5′-(phenylthio)-pent-3′-en-1′-ynyl)-7-oxa-bicyclo[4.1.0]heptan-3-ol]", "values": [{"measurement": "relative expression level of AtNCED3 in mannitol stressed plants (in words)", "setting": "AtNCED3", "result": "similar, although not as pronounced effects"}, {"measurement": "Ki", "setting": "recombinant AtNCED3", "result": 57, "unit": "µM"}, {"measurement": "relative inhibition of AtNCED3 activity (in words)", "setting": "recombinant AtNCED3", "result": "completely inhibited"}]}
{"smiles": "C/C(C#C[C@@]12O[C@]1(C)C[C@@H](O)CC2(C)C)=C/CNc1ccccc1", "note": "[Compound 18, (1R,3S,6R)-(3′Z)-1,5,5-Trimethyl-6-(3′-methyl-5′-(phenylamino)-pent-3′-en-1-ynyl)-7-oxabicyclo[4.1.0]heptan-3-ol]", "values": [{"measurement": "relative expression level of AtNCED3 in mannitol stressed plants (in words)", "setting": "AtNCED3", "result": "similar, although not as pronounced effects"}, {"measurement": "Ki", "setting": "recombinant AtNCED3", "result": 87, "unit": "µM"}, {"measurement": "relative inhibition of AtNCED3 activity (in words)", "setting": "recombinant AtNCED3", "result": "completely inhibited"}]}
